SMILES strings stand for the structures. Where only a bound is given, the exact number is not on record here.

One test concerns the target CRBN/DDB1 (Homo sapiens (Human), UniProt Q96SW2). Description: IC50 measurements for binding to CRBN/DDB1 (HTRF). The following applies: His tagged CRBN+DDB, Cy5-labeled Thalidomide probe, one hour. Put shortly:
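HTRF competition binding with 2 nM His-tagged CRBN-DDB1 complex, 60 nM Cy5-thalidomide probe and 0.4 nM anti-His Tb cryptate in 50 mM HEPES pH 7.5, 1 mM TCEP, 0.01% Brij-35, 50 mM NaCl, 0.1% BSA. Read after 1 h at room temperature; IC50 from four-parameter dose-response fit.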
A general note: TR-FRET usually uses a lanthanide donor and a delayed reading to cut background.

A further test addresses IKZF2 (Homo sapiens (Human), UniProt Q96SW2+Q9UKS7). Description: In vitro IKZF2 FACS Assay in Jurkat cells. Format: cell-based. The following applies: 24 hrs; for DC50: half maximal degradation concentration; for Dmax: maximal degradation percentage. The method, then:
In vitro IKZF2 FACS Assay
DC50, A: <1 nM; B: 1-10 nM; C: 10-100 nM; D: 100-1000 nM; E: >1000 nM. Dmax, A: >80%; B: 60-80%; C: 40-60%; D: 20-40%; E: <20%.

Chain of CRBN/DDB1 (Q96SW2 whole entry, species assumed): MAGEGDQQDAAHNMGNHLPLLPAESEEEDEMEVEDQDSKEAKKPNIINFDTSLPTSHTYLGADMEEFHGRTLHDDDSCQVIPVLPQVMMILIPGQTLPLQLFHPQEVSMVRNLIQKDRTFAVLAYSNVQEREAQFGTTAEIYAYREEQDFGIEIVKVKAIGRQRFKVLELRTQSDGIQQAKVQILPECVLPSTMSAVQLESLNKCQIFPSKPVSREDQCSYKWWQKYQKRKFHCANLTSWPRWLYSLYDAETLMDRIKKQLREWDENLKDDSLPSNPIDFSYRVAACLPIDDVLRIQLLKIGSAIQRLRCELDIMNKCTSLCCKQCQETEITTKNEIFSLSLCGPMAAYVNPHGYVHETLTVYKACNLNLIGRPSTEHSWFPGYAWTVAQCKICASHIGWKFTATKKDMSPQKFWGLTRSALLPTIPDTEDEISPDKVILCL
Chain of CRBN/DDB1 (Q16531 whole entry partner, species assumed): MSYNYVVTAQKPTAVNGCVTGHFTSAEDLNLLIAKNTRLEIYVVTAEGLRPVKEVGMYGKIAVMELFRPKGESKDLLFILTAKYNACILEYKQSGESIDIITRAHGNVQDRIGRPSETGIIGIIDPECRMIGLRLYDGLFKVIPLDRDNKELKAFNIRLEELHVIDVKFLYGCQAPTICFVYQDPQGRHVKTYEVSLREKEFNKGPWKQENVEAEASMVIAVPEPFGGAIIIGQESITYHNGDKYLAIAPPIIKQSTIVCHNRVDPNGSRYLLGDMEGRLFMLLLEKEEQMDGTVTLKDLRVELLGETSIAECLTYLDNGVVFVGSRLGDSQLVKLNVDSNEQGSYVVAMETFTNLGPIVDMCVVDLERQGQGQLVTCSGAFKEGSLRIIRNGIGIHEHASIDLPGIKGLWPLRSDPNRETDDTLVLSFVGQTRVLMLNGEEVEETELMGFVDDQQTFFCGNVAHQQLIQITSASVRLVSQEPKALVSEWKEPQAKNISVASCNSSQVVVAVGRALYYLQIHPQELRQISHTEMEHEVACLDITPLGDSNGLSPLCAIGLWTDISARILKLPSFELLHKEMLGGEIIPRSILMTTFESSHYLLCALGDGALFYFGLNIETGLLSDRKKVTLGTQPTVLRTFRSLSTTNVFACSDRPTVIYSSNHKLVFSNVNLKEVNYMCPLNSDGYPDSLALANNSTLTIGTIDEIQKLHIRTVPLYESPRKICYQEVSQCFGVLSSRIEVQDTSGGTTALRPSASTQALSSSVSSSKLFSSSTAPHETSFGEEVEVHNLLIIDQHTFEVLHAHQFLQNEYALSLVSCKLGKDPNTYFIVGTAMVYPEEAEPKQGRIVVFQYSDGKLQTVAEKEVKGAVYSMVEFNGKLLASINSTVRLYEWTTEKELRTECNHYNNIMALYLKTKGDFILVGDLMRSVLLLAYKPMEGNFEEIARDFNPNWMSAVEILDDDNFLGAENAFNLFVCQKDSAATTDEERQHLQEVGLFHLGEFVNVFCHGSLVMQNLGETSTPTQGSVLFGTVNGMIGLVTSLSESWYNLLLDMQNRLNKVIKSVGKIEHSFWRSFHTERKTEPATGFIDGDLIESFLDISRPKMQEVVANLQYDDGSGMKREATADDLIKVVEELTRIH
Chain of IKZF2 (Q9UKS7 whole entry): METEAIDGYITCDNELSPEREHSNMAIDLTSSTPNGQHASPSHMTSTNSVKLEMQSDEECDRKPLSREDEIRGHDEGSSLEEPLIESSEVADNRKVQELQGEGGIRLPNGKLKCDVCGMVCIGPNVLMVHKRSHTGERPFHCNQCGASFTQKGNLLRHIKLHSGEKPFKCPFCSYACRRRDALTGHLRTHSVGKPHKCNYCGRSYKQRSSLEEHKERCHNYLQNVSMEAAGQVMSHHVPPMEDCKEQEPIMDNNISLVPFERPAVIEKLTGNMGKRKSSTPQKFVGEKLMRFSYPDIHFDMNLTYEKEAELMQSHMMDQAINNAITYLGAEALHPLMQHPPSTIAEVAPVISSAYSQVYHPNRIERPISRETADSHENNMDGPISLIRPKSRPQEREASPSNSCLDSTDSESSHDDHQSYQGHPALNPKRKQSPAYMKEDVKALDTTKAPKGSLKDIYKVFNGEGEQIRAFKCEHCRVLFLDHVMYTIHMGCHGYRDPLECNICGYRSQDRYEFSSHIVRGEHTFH
Chain of IKZF2 (Q96SW2 whole entry): as the sequence (Q96SW2 whole entry, species assumed) above
Chain of IKZF2 (Q16531 2-1140 partner): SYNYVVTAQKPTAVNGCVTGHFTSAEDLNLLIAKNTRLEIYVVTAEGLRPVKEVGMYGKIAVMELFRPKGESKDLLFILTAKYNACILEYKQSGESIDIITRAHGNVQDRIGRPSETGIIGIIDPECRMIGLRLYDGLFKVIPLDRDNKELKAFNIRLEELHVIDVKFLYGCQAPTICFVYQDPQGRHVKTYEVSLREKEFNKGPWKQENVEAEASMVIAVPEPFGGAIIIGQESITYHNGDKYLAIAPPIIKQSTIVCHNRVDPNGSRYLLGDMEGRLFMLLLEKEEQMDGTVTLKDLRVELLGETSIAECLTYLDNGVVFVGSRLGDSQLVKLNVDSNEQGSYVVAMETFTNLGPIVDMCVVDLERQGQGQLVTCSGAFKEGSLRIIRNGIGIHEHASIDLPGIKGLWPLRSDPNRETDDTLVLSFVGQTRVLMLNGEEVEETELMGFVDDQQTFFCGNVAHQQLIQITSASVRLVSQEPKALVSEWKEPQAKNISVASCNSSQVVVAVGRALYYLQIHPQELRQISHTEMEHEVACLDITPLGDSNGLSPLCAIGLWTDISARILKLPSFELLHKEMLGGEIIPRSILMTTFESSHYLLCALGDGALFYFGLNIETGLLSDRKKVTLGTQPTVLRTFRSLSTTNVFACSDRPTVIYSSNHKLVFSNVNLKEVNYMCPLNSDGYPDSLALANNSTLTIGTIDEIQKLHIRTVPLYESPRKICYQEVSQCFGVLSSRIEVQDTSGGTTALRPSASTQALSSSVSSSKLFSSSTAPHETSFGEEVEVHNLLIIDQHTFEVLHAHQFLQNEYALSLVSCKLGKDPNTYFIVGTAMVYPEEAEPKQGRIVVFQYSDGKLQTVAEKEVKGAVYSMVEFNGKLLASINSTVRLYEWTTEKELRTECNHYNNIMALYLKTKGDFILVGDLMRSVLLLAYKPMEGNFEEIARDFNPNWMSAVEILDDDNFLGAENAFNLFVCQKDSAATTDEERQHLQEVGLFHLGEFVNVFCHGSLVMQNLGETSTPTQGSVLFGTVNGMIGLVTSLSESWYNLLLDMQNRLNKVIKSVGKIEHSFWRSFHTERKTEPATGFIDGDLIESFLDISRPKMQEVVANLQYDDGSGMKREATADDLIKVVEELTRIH

As a reminder, the IC50 is the point on the concentration scale where inhibition reaches its midpoint. Higher therefore signals weaker potency. A word on the DC50: it is the concentration at which degradation of the target reaches its halfway point. As a reminder, the Dmax is the largest share of the target that was removed. Higher therefore signals deep degradation. On to `CC1CCCN(Cc2cc(-c3ccc4c(c3)CN(C3CCC(=O)NC3=O)C4=O)n3cncc3c2)C1` (stereo not drawn) [Example 5, 3-(5-(7-((3-methylpiperidin-1-yl)methyl)imidazo[1,5-a]pyridin-5-yl)-1-oxoisoindolin-2-yl) piperidine-2,6-dione], for which, on CRBN/DDB1, the IC50 is 1000 to 5000 nM. For the same molecule, at IKZF2, the DC50 lay in the range of 10 to 100 nM and the Dmax was in the range of 40 to 60%.

Consider `O=C1CCC(N2Cc3cc(-c4cc(CN5CCC6(CCC6)CC5)cc5cncn45)ccc3C2=O)C(=O)N1` (stereo not drawn) [Example 9, 3-(5-(7-((7-azaspiro[3.5]nonan-7-yl)methyl)imidazo[1,5-a]pyridin-5-yl)-1-oxoisoindolin-2-yl) piperidine-2,6-dione], for which, at CRBN/DDB1, the IC50 lay in the range of 500 to 1000 nM. Besides, at IKZF2, the half-maximal degradation concentration (DC50) lay within 10 to 100 nM and the Dmax lay within 40 to 60%.

For the molecule `C[C@@H](c1ccccc1)N(C)Cc1cc(-c2ccc3c(c2)CN(C2CCC(=O)NC2=O)C3=O)n2cncc2c1` (single isomer, unassigned) [Example 15, 3-(5-(7-((methyl ((S*)-1-phenylethyl)amino)methyl)imidazo[1,5-a]pyridin-5-yl)-1-oxoisoindolin-2-yl) piperidine-2,6-dione], the half-maximal inhibitory concentration (IC50) on CRBN/DDB1 fell in the range of 1000 to 5000 nM. On IKZF2, this molecule gave a DC50 of 10 to 100 nM and a Dmax of 20 to 40%.

In the case of `O=C1CCC(N2Cc3cc(-c4ncc5ccc(CN6CCCC6)cn45)ccc3C2=O)C(=O)N1` (stereo not drawn) [Example 53, 3-(1-oxo-5-(6-(pyrrolidin-1-ylmethyl)imidazo[1,5-a]pyridin-3-yl)isoindolin-2-yl) piperidine-2,6-dione], the IC50 on CRBN/DDB1 lay in the range of 5000 to 10000 nM. Besides, on IKZF2, the DC50 was over 1000 nM and the greatest degradation seen (Dmax) lay in the range of 20 to 40%.

At CRBN/DDB1, `O=C1CCC(N2Cc3cc(-c4cc(CN5CCOCC5)cc5cncn45)ccc3C2=O)C(=O)N1` (stereo not drawn) [Example 4, 3-(5-(7-(morpholinomethyl)imidazo[1,5-a]pyridin-5-yl)-1-oxoisoindolin-2-yl) piperidine-2,6-dione] returned an IC50 of 1000 to 5000 nM. Moreover, on IKZF2, the half-maximal degradation concentration (DC50) was over 1000 nM and the greatest degradation seen (Dmax) was in the range of 20 to 40%.

For `CN(Cc1cc(-c2ccc3c(c2)CN(C2CCC(=O)NC2=O)C3=O)n2cncc2c1)C(C)(C)c1ccccc1` (stereo not drawn) [Example 19, 3-(5-(7-((methyl (2-phenylpropan-2-yl)amino)methyl)imidazo[1,5-a]pyridin-5-yl)-1-oxoisoindolin-2-yl) piperidine-2,6-dione], the 50% inhibitory concentration (IC50) at CRBN/DDB1 is 1000 to 5000 nM. For the same molecule, at IKZF2, the DC50 is 100 to 1000 nM and the Dmax was 20 to 40%.

On CRBN/DDB1, `CC(NCc1cc(-c2ccc3c(c2)CN(C2CCC(=O)NC2=O)C3=O)n2cncc2c1)c1ccccc1Cl` (stereo not drawn) [Example 23, 3-(5-(7-(((1-(2-chlorophenyl)ethyl)amino)methyl)imidazo[1,5-a]pyridin-5-yl)-1-oxoisoindolin-2-yl) piperidine-2,6-dione] registered a 50% inhibitory concentration (IC50) of 1000 to 5000 nM. On IKZF2, this molecule had a DC50 of 10 to 100 nM and a Dmax of 20 to 40%.

Turning to `O=C1CCC(N2Cc3cc(-c4cc(CNCc5ccccc5)cc5cncn45)ccc3C2=O)C(=O)N1` (stereo not drawn) [Example 13, 3-(5-(7-((benzylamino)methyl)imidazo[1,5-a]pyridin-5-yl)-1-oxoisoindolin-2-yl) piperidine-2,6-dione], the IC50 at CRBN/DDB1 was in the range of 100 to 500 nM. At IKZF2, this molecule showed a DC50 of 10 to 100 nM and a Dmax of 20 to 40%.

Values taken from patent US20250214991A1 (Oncopia Therapeutics, Inc. d/b/a/ SK Life Science Labs, priority 2022, published 2025).
